Measurements reported in patent publication US8754242B2, “Herbicides” (Syngenta Crop Protection LLC, priority 2007, dated 2014).

Assays:
Type in all cases: in vivo
[1] = test system: Alopecurus myosuroides (ALOMY); experiment: Test Example 1 pre-emergence herbicidal activity; conditions: rate 250 g/ha, evaluated 20 days later; for pest or weed control at 250 g/ha: Alopecurus myosuroides, 480 h, read-out: Pre-emergence activity ALOMY (100=total damage to plant; 0=no damage to plant)
Method in brief: (§1)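 Pots sown in standard soil were sprayed 1 day (pre-emergence) or 10 days (post-emergence) after sowing with an aqueous spray from an acetone/Emulsogen EL/N-methylpyrrolidone-based formulation. Visual damage was scored 20 days (pre) or 15 days (post) later in the greenhouse, 0 = none to 100 = total.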

[2] = test system: Digitaria sanguinalis (DIGSA); experiment: Test Example 1 pre-emergence herbicidal activity; conditions: Digitaria sanguinalis, 480 h, rate 250 g/ha, evaluated 20 days later, read-out: Pre-emergence activity DIGSA (100=total damage to plant; 0=no damage to plant)
Method in brief: as §1

Avena fatua (AVEFA) [3] = experiment: Test Example 1 pre-emergence herbicidal activity; conditions: rate 250 g/ha, evaluated 20 days later; for pest or weed control at 250 g/ha: Avena fatua, 480 h, read-out: Pre-emergence activity AVEFA (100=total damage to plant; 0=no damage to plant)
Method in brief: as §1

Setaria faberi (SETFA) [4] = experiment: Test Example 1 pre-emergence herbicidal activity; conditions: Setaria faberi, 480 h, rate 250 g/ha, evaluated 20 days later, read-out: Pre-emergence activity SETFA (100=total damage to plant; 0=no damage to plant)
Method in brief: as §1

[5] = test system: Echinochloa crus-galli (ECHCG); experiment: Test Example 1 pre-emergence herbicidal activity; conditions: Echinochloa crus-galli, 480 h, rate 250 g/ha, evaluated 20 days later, read-out: Pre-emergence activity ECHCG (100=total damage to plant; 0=no damage to plant)
Method in brief: as §1

Lolium perenne (LOLPE) [6] = experiment: Test Example 1 pre-emergence herbicidal activity; conditions: Lolium perenne, 480 h, rate 250 g/ha, evaluated 20 days later, read-out: Pre-emergence activity LOLPE (100=total damage to plant; 0=no damage to plant)
Method in brief: as §1

[7] = test system: Alopecurus myosuroides (ALOMY); experiment: Test Example 1 post-emergence herbicidal activity; conditions: 360 h, rate 125 g/ha, evaluated 15 days later, read-out: Post-emergence activity ALOMY (100=total damage to plant; 0=no damage to plant)
Method in brief: as §1

[8] = test system: Digitaria sanguinalis (DIGSA); experiment: Test Example 1 post-emergence herbicidal activity; conditions: 360 h, rate 125 g/ha, evaluated 15 days later, read-out: Post-emergence activity DIGSA (100=total damage to plant; 0=no damage to plant)
Method in brief: as §1

Avena fatua (AVEFA) [9] = experiment: Test Example 1 post-emergence herbicidal activity; conditions: 360 h, rate 125 g/ha, evaluated 15 days later, read-out: Post-emergence activity AVEFA (100=total damage to plant; 0=no damage to plant)
Method in brief: as §1

Setaria faberi (SETFA) [10] = experiment: Test Example 1 post-emergence herbicidal activity; conditions: 360 h, rate 125 g/ha, evaluated 15 days later, read-out: Post-emergence activity SETFA (100=total damage to plant; 0=no damage to plant)
Method in brief: as §1

[11] = test system: Echinochloa crus-galli (ECHCG); experiment: Test Example 1 post-emergence herbicidal activity; conditions: 360 h, rate 125 g/ha, evaluated 15 days later, read-out: Post-emergence activity ECHCG (100=total damage to plant; 0=no damage to plant)
Method in brief: as §1

Lolium perenne (LOLPE) [12] = experiment: Test Example 1 post-emergence herbicidal activity; conditions: 360 h, rate 125 g/ha, evaluated 15 days later, read-out: Post-emergence activity LOLPE (100=total damage to plant; 0=no damage to plant)
Method in brief: as §1

Structure (SMILES)	pest or weed control at 250 g/ha [1] [%]	pest or weed control at 250 g/ha [2] [%]	pest or weed control at 250 g/ha (Avena fatua (AVEFA) [3]) [%]	pest or weed control at 250 g/ha (Setaria faberi (SETFA) [4]) [%]	pest or weed control at 250 g/ha [5] [%]	pest or weed control at 250 g/ha (Lolium perenne (LOLPE) [6]) [%]	pest or weed control at 125 g/ha [7] [%]	pest or weed control at 125 g/ha [8] [%]	pest or weed control at 125 g/ha (Avena fatua (AVEFA) [9]) [%]	pest or weed control at 125 g/ha (Setaria faberi (SETFA) [10]) [%]	pest or weed control at 125 g/ha [11] [%]	pest or weed control at 125 g/ha (Lolium perenne (LOLPE) [12]) [%]	Pre-emergence activity ALOMY (100=total damage to plant; 0=no damage to plant) [1]	Pre-emergence activity AVEFA (100=total damage to plant; 0=no damage to plant) (Avena fatua (AVEFA) [3])
C#CC1=C[C@@H]2O[C@H]1[C@H]1C(O)=C(c3c(CC)cc(C)cc3CC)C(=O)[C@H]12 [Example T12]	10	40	10	40	0	40	70	70	50	70	70	10	–	–
CC1=C[C@@H]2O[C@H]1[C@H]1C(O)=C(c3c(C)cc(C)cc3C)C(=O)[C@H]12 (racemic) [Example T44]	80	80	40	80	70	70	80	80	50	80	90	20	–	–
Cc1cc(C)c(C2=C(O)[C@H]3[C@@H](C2=O)[C@@H]2CC[C@@]3(C)O2)c(C)c1 (racemic) [Example T9]	–	100	–	100	100	100	80	100	60	80	100	70	70	40
Cc1cc(C)c(C2=C(O)[C@@H]3[C@@H]4O[C@@H](C[C@H]4c4ccc([N+](=O)[O-])cc4)[C@@H]3C2=O)c(C)c1 [Example T90]	10	60	60	40	70	20	90	80	80	60	80	60	–	–
CCc1cc(C)cc(CC)c1C1=C(O)[C@H]2[C@@H](C1=O)[C@@H]1CC[C@@]2(COCC#N)O1 [Example T27]	70	90	70	100	100	70	100	100	90	100	100	80	–	–
Cc1cc(C)c(C2=C(O)[C@@H]3[C@@H]4O[C@@H](C[C@H]4c4ccc(C(F)(F)F)cn4)[C@@H]3C2=O)c(C)c1 (racemic) [Example T200]	0	70	0	70	90	70	70	100	80	100	100	80	–	–
Cc1cc(C)c(C2=C(OC(=O)C3CC3)[C@H]3[C@@H](C2=O)[C@@H]2CC[C@H]3O2)c(C)c1 (racemic) [Example P5]	100	100	100	90	90	100	100	60	90	80	100	100	–	–
COc1cc(C)c(C2=C(O)[C@H]3[C@@H](C2=O)[C@@H]2CC[C@H]3O2)c(C)c1 [Example T208]	50	70	70	80	80	80	70	50	70	70	80	80	–	–
C#CCOC(=O)OC1=C(c2c(CC)cc(C)cc2CC)C(=O)[C@@H]2[C@H]1[C@H]1CC[C@@H]2O1 (racemic) [Example P25]	100	100	100	100	100	100	100	80	90	80	100	100	–	–
Cc1cc(C)c(C2=C(O)[C@H]3[C@@H](C2=O)[C@@H]2C=C[C@@]3(CO)O2)c(C)c1 (racemic) [Example T37]	60	20	30	0	30	30	50	50	20	70	80	20	–	–
Cc1cc(C)c(C2=C(O)[C@@H]3[C@@H]4O[C@@H](C[C@H]4c4ccccc4)[C@@H]3C2=O)c(C)c1 [Example T56]	100	70	60	70	100	100	100	70	50	60	100	80	–	–
CCc1cc(C)cc(CC)c1C1=C(O)C2[C@@H](C1=O)[C@@H]1C[C@@H](c3ccc(OC)cc3)[C@H]2O1 (stereo partly drawn) [Example T156]	70	70	60	70	70	70	90	70	80	100	100	70	–	–
CCC(=O)OC1=C(c2c(CC)cc(C)cc2CC)C(=O)[C@@H]2[C@H]1[C@H]1CC[C@@H]2O1 (racemic) [Example P22]	100	100	100	100	100	100	100	100	100	100	100	100	–	–
